Data as given in US8383817B2, “Benztropine compounds and uses thereof” (The United States of America, as represented by the …, priority 2005, dated 2013).
Like-named read-outs stand apart in the source and are kept apart here.

Tests used:
muscarinic M1 receptor [1] = biological target: T1, muscarinic M1 receptor (Rattus norvegicus, UniProt P08482); assay: [3H]Pirenzepine Binding Assay, rat brain membranes
T1 construct: Membranes from frozen rat brains excluding cerebellum were thawed; from tissue; host or cells: rat brain (excluding cerebellum) membranes
T1 sequence (P08482 1-460): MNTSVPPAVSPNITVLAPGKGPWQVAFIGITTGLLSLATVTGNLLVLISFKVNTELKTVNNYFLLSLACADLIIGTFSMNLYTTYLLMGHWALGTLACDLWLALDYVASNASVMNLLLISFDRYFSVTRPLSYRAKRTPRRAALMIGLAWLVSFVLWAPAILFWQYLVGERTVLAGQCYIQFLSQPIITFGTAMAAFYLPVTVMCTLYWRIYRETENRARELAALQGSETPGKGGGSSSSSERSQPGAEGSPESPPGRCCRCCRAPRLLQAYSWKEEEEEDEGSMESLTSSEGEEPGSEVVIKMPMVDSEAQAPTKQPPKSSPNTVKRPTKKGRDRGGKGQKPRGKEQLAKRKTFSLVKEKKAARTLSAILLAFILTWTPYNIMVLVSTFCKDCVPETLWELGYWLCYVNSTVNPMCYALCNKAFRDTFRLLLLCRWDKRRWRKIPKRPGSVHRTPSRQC

NET [2] = format: binding, rat
SERT [3] = biological target: T2, SERT (Rattus norvegicus, UniProt P31652); assay: [3H]Citalopram Binding Assay, rat midbrain membranes; details: for Ki: rat brain membranes, read-out: SERT [3H]citalopram Ki ± SEM
T2 construct: Membranes from frozen rat midbrain were homogenized; from tissue; host or cells: rat midbrain membranes
T2 sequence (P31652 whole entry): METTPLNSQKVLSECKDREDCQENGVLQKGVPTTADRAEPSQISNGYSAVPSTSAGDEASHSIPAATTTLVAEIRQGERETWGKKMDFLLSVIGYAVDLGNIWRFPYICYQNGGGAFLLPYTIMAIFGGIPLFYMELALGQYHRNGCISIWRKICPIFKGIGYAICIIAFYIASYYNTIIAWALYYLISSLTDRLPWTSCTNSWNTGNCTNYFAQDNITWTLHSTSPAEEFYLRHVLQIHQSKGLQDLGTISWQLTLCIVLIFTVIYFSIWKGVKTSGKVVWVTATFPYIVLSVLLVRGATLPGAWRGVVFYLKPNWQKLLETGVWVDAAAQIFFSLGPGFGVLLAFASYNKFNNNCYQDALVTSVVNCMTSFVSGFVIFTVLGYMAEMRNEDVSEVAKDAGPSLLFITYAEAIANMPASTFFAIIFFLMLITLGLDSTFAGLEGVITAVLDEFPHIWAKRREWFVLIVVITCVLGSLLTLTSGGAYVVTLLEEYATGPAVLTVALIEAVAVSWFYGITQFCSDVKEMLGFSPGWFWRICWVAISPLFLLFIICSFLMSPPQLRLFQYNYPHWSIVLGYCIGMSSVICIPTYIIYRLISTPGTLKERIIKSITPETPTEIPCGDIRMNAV

DAT [4] = biological target: T3, DAT (Rattus norvegicus, UniProt P23977); assay: biochemical; format: binding
T3 construct: their brains removed to an ice-cooled dish for dissection of the caudate putamen; from tissue; host or cells: rat caudate putamen homogenate
T3 sequence (P23977 whole entry): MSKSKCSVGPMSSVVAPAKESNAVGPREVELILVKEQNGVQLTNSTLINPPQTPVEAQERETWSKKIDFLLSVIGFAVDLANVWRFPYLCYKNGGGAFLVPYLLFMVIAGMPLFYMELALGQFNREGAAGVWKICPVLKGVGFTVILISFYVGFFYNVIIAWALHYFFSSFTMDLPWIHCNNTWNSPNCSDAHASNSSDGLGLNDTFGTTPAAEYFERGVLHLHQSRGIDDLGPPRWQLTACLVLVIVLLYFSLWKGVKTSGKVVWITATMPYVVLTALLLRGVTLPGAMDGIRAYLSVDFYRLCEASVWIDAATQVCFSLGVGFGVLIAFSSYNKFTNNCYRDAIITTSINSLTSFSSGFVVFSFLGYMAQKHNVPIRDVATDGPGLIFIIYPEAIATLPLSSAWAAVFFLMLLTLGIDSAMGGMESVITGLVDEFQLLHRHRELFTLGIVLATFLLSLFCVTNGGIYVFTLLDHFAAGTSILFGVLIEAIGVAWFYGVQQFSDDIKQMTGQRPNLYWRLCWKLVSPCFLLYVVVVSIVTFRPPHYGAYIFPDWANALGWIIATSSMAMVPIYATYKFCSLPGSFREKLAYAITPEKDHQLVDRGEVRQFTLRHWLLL

muscarinic M1 receptor [5] = biological target: T1, muscarinic M1 receptor; details: comparative data taken from Agoston et al. 1997; read-out: M1 [3H]pirenzepine Ki ± SEM; cited from earlier work
DAT [6] = biological target: T3, DAT; details: read-out: DAT [3H]WIN 35,428 Ki ± SEM; comparative data taken from Agoston et al. 1997; cited from earlier work
SERT [7] = biological target: T2, SERT; details: comparative data taken from Agoston et al. 1997; read-out: SERT [3H]citalopram Ki ± SEM; cited from earlier work
NET [8] = biological target: T4, NET (Rattus norvegicus, UniProt Q63380); details: read-out: NET [3H]nisoxetine Ki ± SEM; comparative data taken from Agoston et al. 1997; cited from earlier work
T4 sequence (Q63380 1-617): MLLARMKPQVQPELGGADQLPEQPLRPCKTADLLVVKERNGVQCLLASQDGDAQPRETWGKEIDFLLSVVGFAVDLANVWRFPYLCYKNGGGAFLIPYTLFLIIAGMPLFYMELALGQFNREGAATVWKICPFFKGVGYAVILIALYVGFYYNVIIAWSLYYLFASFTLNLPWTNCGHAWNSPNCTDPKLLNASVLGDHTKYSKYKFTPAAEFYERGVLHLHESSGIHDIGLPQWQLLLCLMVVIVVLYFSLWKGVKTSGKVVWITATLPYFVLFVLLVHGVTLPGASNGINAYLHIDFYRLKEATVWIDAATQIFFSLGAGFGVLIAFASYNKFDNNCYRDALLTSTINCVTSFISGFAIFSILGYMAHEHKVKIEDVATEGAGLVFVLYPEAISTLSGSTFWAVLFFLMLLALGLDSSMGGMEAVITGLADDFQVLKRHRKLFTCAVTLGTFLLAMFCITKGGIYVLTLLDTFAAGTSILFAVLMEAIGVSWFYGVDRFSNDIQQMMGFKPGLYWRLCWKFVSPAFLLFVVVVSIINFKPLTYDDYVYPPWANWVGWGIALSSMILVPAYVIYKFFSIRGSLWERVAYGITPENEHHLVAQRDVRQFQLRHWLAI

[9] = Model For Reducing Effect of Nicotine (nicotine discrimination); format: in vivo, rat; details: rats; dose 3.0 mg/kg; nicotine only control 50%
Source text: Model For Reducing Effect of Nicotine. Food-deprived rats were trained to press one lever for a food pellet after nicotine administration and a second lever after vehicle administration. Pellets of food were delivered intermittently, so that every twentieth response produced food. Using this procedure, the only cue for the rat regarding which lever occasionally pays off with a food pellet, is the subjective effect of the nicotine. When the rats were accurately and reliably identifying the nicotine injections (approximately all of its responses on the lever that occasionally pays off after nicotine or saline), testing began. The rats were pretreated with a compound of Formula III before nicotine injection, and the experiment progressed as described above, except responses on either lever intermittently produced food. A 50% effective nicotine dose was reduced to low levels of effectiveness upon administration of a compound of Formula III.

NET [10] = biological target: T4, NET; format: binding; details: read-out: NET [3H]nisoxetine Ki ± SEM; rat brain membranes; incubation time 1 h
[11] = biological target: T5, dopaminergic transporter sites (Mus musculus, UniProt Q61327); assay: In vivo binding of [125I]RTI-121 (displacement in striatum); details: mice
T5 construct: Whole brains were rapidly removed and striatum and cerebellum were dissected on ice; from tissue; host or cells: mouse striatum, in vivo occupancy
T5 sequence (Q61327 whole entry): as the sequence (P23977 whole entry) above, with S21P, A57V, A194S, H600R, L619V counted along it
Source text: In vivo binding of [^125I]RTI-121. Each animal received an i.v. injection of 2 μCi of [^125I]RTI-121. Two hours after administration of [^125I]RTI-121, the animals were sacrificed by cervical dislocation. In each mouse, displacement of [^125I]RTI-121 was examined by giving an i.p. injection of one of the displacers at various doses and times relative to sacrifice, Displacement by test drugs at various doses was examined at various times after their injection, with each data point determined in sets of approximately six mice. Whole brains were rapidly removed and striatum and cerebellum were dissected on ice.
Regional radioactivity levels were divided by weight (gram) of the tissue (CPM/tissue weight). Specific binding was calculated as CPM/tissue weight in striatum divided by cerebellum minus 1 (S/C−1), which is based on the observation that dopaminergic transporter sites are highly concentrated in the striatum and relatively absent in the cerebellum. These values were expressed as a percentage of specific binding after vehicle injection. Data were analyzed using two-way analysis of variance (ANOVA), and a post-hoc Tukey's test was used to determine significance of effects for individual doses at different time periods following IP injection of compound 1a (FIG. 3A), 1b (FIG. 3B), MFZ 2-74 (R^1=Me; R^2,3=F; R^4=CO2-^iPr) (FIG. 3C), 15 (FIG. 3D), and 14 (FIG. 3E). […]

[12] = rat brain membranes, read-out: M1 [3H]pirenzepine Ki ± SEM
[13] = ratio of respective Ki values, greater than 1 = DAT selective
[14] = read-out: DAT [3H]WIN 35,428 Ki ± SEM

Structure (SMILES)	Ki (muscarinic M1 receptor [1]; [12])	Binding selectivity DAT/M1 (muscarinic M1 receptor [1]; [13])	Ki (SERT [3])	Ki (DAT [4]; [14])	Binding selectivity DAT/NET (NET [2]; [13])	Binding selectivity DAT/SERT (SERT [3]; [13])	also measured
CN1C2CCC1[C@@H](COC(=O)CCCc1ccc(N)cc1)[C@@H](OC(c1ccc(F)cc1)c1ccc(F)cc1)C2 (stereo partly drawn) [Compound 8, S-(−)-2β-{[4-(4′-Aminophenyl)butyryl]oxymethyl}-3α-[bis(4-fluorophenyl)methoxy]tropane]	342 ± 33.7 nM	reduced DAT/M1 selectivity	1390 ± 145 nM	27.6 ± 0.85 nM	–	–	Binding selectivity DAT/M1 (muscarinic M1 receptor [1]): 12; Binding selectivity DAT/NET (NET [2]): 16; Binding selectivity DAT/SERT (SERT [3]): 50
CN1[C@@H]2CC[C@H]1[C@H](COC(=O)CCCc1ccc([N+](=O)[O-])cc1)[C@@H](OC(c1ccc(F)cc1)c1ccc(F)cc1)C2 [Compound 7, S-(+)-2β-{[4-(4′-Nitrophenyl)butyryl]oxymethyl}-3α-[bis(4-fluorophenyl)methoxy]tropane]	–	–	3780 ± 390 nM	–	–	–	Ki (muscarinic M1 receptor [1]): 708 ± 102 nM
C=CCN1[C@@H]2CC[C@H]1C[C@@H](OC(c1ccc(F)cc1)c1ccc(F)cc1)C2 [Compound 13]	–	20	–	–	178	324	Ki (muscarinic M1 receptor [5]): 177 ± 21.1 nM; Ki (DAT [6]): 8.79 ± 0.52 nM; Ki (SERT [7]): 2850 ± 62.5 nM; Ki (NET [8]): 1570 ± 242 nM; Effect (of a 50% effective nicotine dose after pretreatment) [9]: 22.4%
C=C[C@@H]1C2CCC(C[C@@H]1OC(c1ccc(F)cc1)c1ccc(F)cc1)N2C (stereo partly drawn) [Compound 4, S-(+)-2β-Ethenyl-3α-[bis(4-fluorophenyl)methoxy]tropane]	163 ± 23.1 nM	90	1790 ± 114 nM	1.81 nM	261	989	–
COC(=O)CC[C@@H]1C2CCC(C[C@@H]1OC(c1ccc(F)cc1)c1ccc(F)cc1)N2C (stereo partly drawn) [Compound 6, S-(+)-2β-(2′-(Methoxycarbonyl)ethyl)-3α-[bis(4-fluorophenyl)methoxy]tropane]	3110 ± 435 nM	831	1070 ± 118 nM	3.74 nM	121	286	–
CCCCN1C2CCC1[C@@H](C(=O)OCC)[C@@H](OC(c1ccc(F)cc1)c1ccc(F)cc1)C2 (stereo partly drawn) [Compound 10, S-(+)-N-Butyl-2β-carboethoxy-3α-[bis(4-fluorophenyl)methoxy]tropane]	3200 ± 298 nM	391	2500 ± 327 nM	8.18 ± 0.17 nM	71	305	–
CCOC(=O)[C@@H]1C2CCC(C[C@@H]1OC(c1ccc(F)cc1)c1ccc(F)cc1)N2 (stereo partly drawn) [Compound 9, S-(+)-N-nor-2β-Carboethoxy-3α-[bis(4-fluorophenyl)methoxy]tropane]	17100 ± 2480 nM	–	2150 ± 222 nM	8.87 ± 1.02 nM	63	242	–
COC(=O)C1C(OC(c2ccc(Cl)cc2)c2ccc(Cl)cc2)CC2CCC1N2C (racemic) [(±)-14]	–	–	–	–	–	–	Ki (DAT [4]; read-out: DAT binding Ki): 23.4 ± 1.5 nM
CCOC(=O)[C@@H]1C2CCC(C[C@@H]1OC(c1ccc(F)cc1)c1ccc(F)cc1)N2C (some centres unmarked) [Compound 1b]	1890 ± 132 nM	275	1850 ± 270 nM	6.87 ± 0.33 nM	91	269	Ki (NET [10]): 629 ± 31 nM
C=CCN1C2CCC1[C@@H](C(=O)OCC)[C@@H](OC(c1ccc(F)cc1)c1ccc(F)cc1)C2 (stereo partly drawn) [Compound 11, S-(+)-N-Allyl-2β-carboethoxy-3α-[bis(4-fluorophenyl)methoxy]tropane]	11400 ± 1650 nM	1036	2280 ± 125 nM	11 ± 0.94 nM	85	207	–
CCOC(=O)C1C(OC(c2ccc(Cl)cc2)c2ccc(Cl)cc2)CC2CCC1N2C (racemic) [(±)-15]	–	–	–	–	–	–	Ki (DAT [4]; read-out: DAT binding Ki): 22 ± 0.84 nM
CC(C)OC(=O)C1C(OC(c2ccc(F)cc2)c2ccc(F)cc2)CC2CCC1N2C (centres unmarked) [MFZ 2-74]	–	–	–	–	–	–	Time of maximal displacement of [125I]RTI-121 after injection ([11]; IP injection of displacer, striatum vs cerebellum, FIG. 3): not obtained; Time at which maximal displacement of [125I]RTI-121 would likely be obtained ([11]; IP injection, FIG. 3C, maximal displacement not obtained in the test): > 3 h
COC(=O)/C=C/[C@@H]1C2CCC(C[C@@H]1OC(c1ccc(F)cc1)c1ccc(F)cc1)N2C (stereo partly drawn) [Compound 5, S-(+)-2β-(2′-(methoxycarbonyl)eth-1′-enyl)-3α-[bis(4-fluorophenyl)methoxy]tropane]	1380 ± 81 nM	278	572 ± 51 nM	4.69 ± 0.6 nM	54	115	Ki (DAT [4]): 4.96 nM
CN1C2CCC1[C@@H](CO)[C@@H](OC(c1ccc(F)cc1)c1ccc(F)cc1)C2 (stereo partly drawn) [Compound 2, S-(+)-2β-hydroxymethyl-3α-[bis(4-fluorophenyl)methoxy]tropane]	109 ± 15.1 nM	31	910 ± 65 nM	–	279	258	Ki (DAT [4]): 3.52 ± 0.42 nM
COC(=O)[C@@H]1C2CCC(C[C@@H]1OC(c1ccc(F)cc1)c1ccc(F)cc1)N2C (some centres unmarked) [Compound 1a]	133 ± 4.16 nM	45	689 ± 58.4 nM	2.94 nM	91	234	Ki (NET [10]): 269 nM
